One molecule from PMC7936488, “An efficient system for intestinal on-site butyrate production using novel microbiome-derived esterases” (Journal of Biological Engineering, 2021) can be followed below.

Structures are written as SMILES.

The target of one test is T1, SP_Est (Streptococcus pneumoniae, UniProt A0A0H2UNZ8).
T1 construct: gene estA; gene in pBAD24 under tbe1 promoter, E. coli tEc cells, not purified
T1 sequence (A0A0H2UNZ8 1-259): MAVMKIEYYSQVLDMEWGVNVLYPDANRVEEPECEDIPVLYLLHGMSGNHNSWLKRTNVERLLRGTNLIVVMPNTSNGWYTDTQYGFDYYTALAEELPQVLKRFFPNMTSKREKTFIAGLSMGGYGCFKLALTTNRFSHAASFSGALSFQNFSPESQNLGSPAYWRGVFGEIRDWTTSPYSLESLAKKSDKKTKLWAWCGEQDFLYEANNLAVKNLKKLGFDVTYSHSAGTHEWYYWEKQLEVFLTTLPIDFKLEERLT
Kind of test: p-nitrophenol release at […] nm, E. coli tEc cells expressing the gene vs empty vector. The format is cell-based. Particulars: whole-cell culture aliquot, 5 min.

A further test has as its target T2, LL_Tbe (Lactococcus lactis, UniProt Q9L9X0).
T2 construct: gene estA; gene in pBAD24 under tbe1 promoter, E. coli tEc cells, not purified
T2 sequence (Q9L9X0 1-258): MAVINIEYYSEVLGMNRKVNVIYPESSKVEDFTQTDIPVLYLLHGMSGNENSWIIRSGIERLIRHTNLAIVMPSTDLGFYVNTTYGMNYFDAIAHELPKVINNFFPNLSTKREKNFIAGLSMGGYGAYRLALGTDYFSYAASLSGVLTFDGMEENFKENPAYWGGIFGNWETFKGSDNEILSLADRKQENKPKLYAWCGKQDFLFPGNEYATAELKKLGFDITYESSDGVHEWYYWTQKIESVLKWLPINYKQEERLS
The description is as above. The format is cell-based. To be noted: whole-cell culture aliquot, 5 min.

As to `CCCC(=O)Oc1ccc([N+](=O)[O-])cc1` [4-nitrophenyl butyrate], the “p-nitrophenol release at 400 nm, E. coli tEc cells expressing the gene vs empty” value is “the esterase of S. pneumoniae was the most potent among the four tested enzymes” on SP_Est and “Tbe1 demonstrated almost identical activity to the L. lactis enzyme” on LL_Tbe.
